According to patent publication US20230414826A1, “FIBRIN HYDROGELS” (Mayo Foundation for Medical Education and Research, priority 2020, published 2023):

Biological target: T1, fibrinogen (Evicel) (Homo sapiens, UniProt P02671+P02675+P02679)
T1 construct: purchased Ethicon (Evicel Biologically Active Component 2)
T1 sequence (P02671 20-629 limits assumed): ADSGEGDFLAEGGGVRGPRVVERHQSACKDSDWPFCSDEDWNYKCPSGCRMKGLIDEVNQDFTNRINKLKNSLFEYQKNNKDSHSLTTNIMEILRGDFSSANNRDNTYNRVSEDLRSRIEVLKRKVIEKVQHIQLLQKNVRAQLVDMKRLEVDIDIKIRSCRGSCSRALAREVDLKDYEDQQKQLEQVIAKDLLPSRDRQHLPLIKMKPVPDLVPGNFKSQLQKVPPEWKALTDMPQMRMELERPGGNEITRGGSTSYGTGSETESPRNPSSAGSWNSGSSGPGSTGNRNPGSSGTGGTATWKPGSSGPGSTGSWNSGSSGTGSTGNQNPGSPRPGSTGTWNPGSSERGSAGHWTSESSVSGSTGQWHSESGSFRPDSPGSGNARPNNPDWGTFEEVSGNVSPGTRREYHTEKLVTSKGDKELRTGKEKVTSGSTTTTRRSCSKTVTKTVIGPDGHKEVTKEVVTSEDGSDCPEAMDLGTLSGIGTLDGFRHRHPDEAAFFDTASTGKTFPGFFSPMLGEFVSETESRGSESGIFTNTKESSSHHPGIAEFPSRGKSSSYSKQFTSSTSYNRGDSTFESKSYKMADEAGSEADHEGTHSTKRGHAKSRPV
T1 sequence (P02675 31-491): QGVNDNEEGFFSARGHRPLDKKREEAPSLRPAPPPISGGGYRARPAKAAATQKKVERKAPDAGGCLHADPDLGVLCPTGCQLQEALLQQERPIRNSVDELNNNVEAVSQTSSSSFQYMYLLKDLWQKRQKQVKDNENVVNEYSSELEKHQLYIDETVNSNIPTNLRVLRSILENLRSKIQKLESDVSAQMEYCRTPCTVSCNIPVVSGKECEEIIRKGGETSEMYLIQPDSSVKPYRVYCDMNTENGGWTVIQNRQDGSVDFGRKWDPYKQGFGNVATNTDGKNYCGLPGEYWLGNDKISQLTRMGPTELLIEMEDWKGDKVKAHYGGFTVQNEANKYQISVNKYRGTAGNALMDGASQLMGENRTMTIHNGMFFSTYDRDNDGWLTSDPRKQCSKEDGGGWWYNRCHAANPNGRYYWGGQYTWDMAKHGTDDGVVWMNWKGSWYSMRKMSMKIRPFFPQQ
T1 sequence (P02679 27-433 limits assumed): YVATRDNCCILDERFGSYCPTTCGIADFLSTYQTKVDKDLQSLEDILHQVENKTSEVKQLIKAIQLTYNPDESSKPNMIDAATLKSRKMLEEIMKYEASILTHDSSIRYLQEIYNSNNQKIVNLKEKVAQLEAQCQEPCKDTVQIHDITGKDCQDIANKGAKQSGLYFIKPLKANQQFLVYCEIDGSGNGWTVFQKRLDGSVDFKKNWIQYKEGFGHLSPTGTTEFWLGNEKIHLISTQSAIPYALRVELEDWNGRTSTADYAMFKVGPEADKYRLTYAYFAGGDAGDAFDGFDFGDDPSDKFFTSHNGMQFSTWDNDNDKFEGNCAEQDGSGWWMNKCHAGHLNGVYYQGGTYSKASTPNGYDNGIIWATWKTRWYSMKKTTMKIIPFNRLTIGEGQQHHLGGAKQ
Experiment: Fibrinogen clotting assay with coagulation analyzer (Clauss method), tissue glue fibrinogen
Type: biochemical
Details: for gelation time (average clotting time): 4.58 mM additive in PBS, fixed 1:20 dilution of fibrinogen (Evicel); for clot time: dye 0.1% w/v; for Effect on Clotting Time: screen, multiple concentrations up to 4.58 mM

[1] = 0.01% (w/v) dye, 1:20 dilution of fibrinogen, n=10
[2] = 0.05% (w/v) dye, 1:20 dilution of fibrinogen, n=10
[3] = 0.10% (w/v) dye, 1:20 dilution of fibrinogen, n=10

Row | Compound | gelation time (average clotting time) (n=10) | clotting time [1] | clotting time [2] | clotting time [3] | clotting time (0.2-0.4% dye, out of range of detection of the coagulation analyzer) | clot time (fibrinogen 10.0 mg/mL) | clot time (fibrinogen 10.9 mg/mL) | clot time (fibrinogen 12.0 mg/mL) | clot time (fibrinogen 13.3 mg/mL) | clot time (fibrinogen 17.1 mg/mL) | clot time (fibrinogen 24.0 mg/mL) | Effect on Clotting Time | clotting time (0.2% (w/v) dye, 1:20 dilution of fibrinogen, n=10) | clotting time (0.3% (w/v) dye, 1:20 dilution of fibrinogen, n=10) | clotting time (0.4% (w/v) dye, 1:20 dilution of fibrinogen, n=10)
1 | Cc1cc(-c2ccc(/N=N/c3ccc4c(S(=O)(=O)O)cc(S(=O)(=O)O)c(N)c4c3O)c(C)c2)ccc1/N=N/c1ccc2c(S(=O)(=O)O)cc(S(=O)(=O)O)c(N)c2c1O [EB, Evans Blue] | > 70 s | 19.4 ± 0.7 s | 34.8 ± 4.7 s | 43.6 ± 2.5 s | > 70 s | 50.9 ± 4.9 s | 39.5 ± 3.3 s | 31.7 ± 1.8 s | 25.7 ± 1.0 s | 14.8 ± 0.4 s | 8.9 ± 2.3 s | Increase |  |  | 
2 | Cc1cc(-c2ccc(/N=N/c3c(S(=O)(=O)O)cc4cc(S(=O)(=O)O)cc(N)c4c3O)c(C)c2)ccc1/N=N/c1c(S(=O)(=O)O)cc2cc(S(=O)(=O)O)cc(N)c2c1O [TB, Trypan Blue] | 46.3 ± 3.2 s | 17.6 ± 0.3 s | 18.1 ± 1.4 s | 24.4 ± 2.3 s |  | 15.7 ± 3.1 s | 16.3 ± 0.4 s | 11.6 ± 3.7 s | 18.1 ± 0.4 s | 7.4 ± 0.1 s | 5.6 ± 0.1 s | Increase | 26.2 ± 4.2 s | 25.2 ± 2.9 s | 29.8 ± 1.2 s
